Converted amounts (≈) assume the structure as drawn.
Columns and labels:
[1] = tested on: bacterial strain engineered for expression of an antisense against rplL and rplJ (50S ribosomal subunit proteins); assay: microbe, parasite or virus in culture; type: cell-based, E. coli; conditions: read-out: IC50 (+I)
Method: Antibiotics of various chemical classes and modes of action were purchased from Sigma Chemicals (St. Louis, Mo.). Stock solutions were prepared by dissolving each antibiotic in an appropriate aqueous solution based on information provided by the manufacturer. The final working solution of each antibiotic contained no more than 0.2% (w/v) of any organic solvent. To determine their potency against a bacterial strain engineered for expression of an antisense against a proliferation-required gene encoding 50S ribosomal protein, each antibiotic was serially diluted two or three fold in growth medium supplemented with the appropriate antibiotic for maintenance of the anti-sense construct. At least ten dilutions were prepared for each antibiotic. 25 μL aliquots of each dilution were transferred to discrete wells of a 384-well microplate (the assay plate) using a multi-channel pipette. Quadruplicate wells were used for each dilution of an antibiotic under each treatment condition (plus and minus inducer). Each assay plate contained twenty wells for cell growth controls (growth media replacing antibiotic), ten wells for each treatment (plus and minus inducer, in this example IPTG). Assay plates were usually divided into the two treatments: half the plate containing induced cells and an appropriate concentrations of inducer (in this example IPTG) to maintain the state of induction, the other half containing non-induced cells in the absence of IPTG.
Cells for the assay were prepared as follows. Bacterial cells containing a construct, from which expression of antisense nucleic acid against rplL and rplJ, which encode proliferation-required 50S ribosomal subunit proteins, is inducible in the presence of IPTG, were grown into exponential growth (OD600 0.2 to 0.3) and then diluted 1:100 into fresh media containing either 400 μM or 0 μM inducer (IPTG). These cultures were incubated at 37° C. for 2.5 hr. After a 2.5 hr incubation, induced and non-induced cells were respectively diluted into an assay medium at a final OD600 value of 0.0004. The medium contained an appropriate concentration of the antibiotic for the maintenance of the anti-sense construct. In addition, the medium used to dilute induced cells was supplemented with 800 μM IPTG so that addition to the assay plate would result in a final IPTG concentration of 400 μM. Induced and non-induced cell suspensions were dispensed (25 μl/well) into the appropriate wells of the assay plate as discussed previously. The plate was then loaded into a plate reader, incubated at constant temperature, and cell growth was monitored in each well by the measurement of light scattering at 595 nm. Growth was monitored every 5 minutes until the cell culture attained a stationary growth phase. For each concentration of antibiotic, a percentage inhibition of growth was calculated at the time point corresponding to mid-exponential growth for the associated control wells (no antibiotic, plus or minus IPTG). For each antibiotic and condition (plus or minus IPTG), a plot of percent inhibition versus log of antibiotic concentration was generated and the IC50 determined.

[2] = tested on: E. coli transformed with an IPTG-inducible plasmid containing antisense clones; assay: Cell based assay: antibiotic sensitivity of E. coli expressing sublethal antisense RNA (Example 9)
Excerpt: The effectiveness of the above cell based assay was validated using constructs expressing antisense RNA to the proliferation required E. coli genes rplL, rplJ, and rplW encoding ribosomal proteins L7/L12, L10 and L23 respectively. These proteins are part of the protein synthesis apparatus of the cell and as such are required for proliferation. These constructs were used to test the effect of antisense expression on cell sensitivity to antibiotics known to bind to the ribosome and thereby inhibit protein synthesis. Constructs expressing antisense RNA to several other genes (elaD, visC, yohh, and atpE/B), the products of which are not involved in protein synthesis were used for comparison.
First pLex5BA (Krause et al., J. Mol. Biol. 274: 365 (1997), the disclosure of which is incorporated herein by reference in its entirety) expression vectors containing antisense constructs to either rplW or to elaD were introduced into separate E. coli cell populations. Vector introduction is a technique well known to those of ordinary skill in the art. The expression vectors of this example contain IPTG inducible promoters that drive the expression of the antisense RNA in the presence of the inducer. However, those skilled in the art will appreciate that other inducible promoters may also be used. Suitable expression vectors are also well known in the art. The E. coli antisense clones encoding ribosomal proteins L7/L12, L10 and L23 were used to test the effect of antisense expression on cell sensitivity to the antibiotics known to bind to these proteins. […]
The cell populations were exposed to a range of IPTG concentrations in liquid medium to obtain the growth inhibitory dose curve for each clone (FIG. 1). First, seed cultures were grown to a particular turbidity that is measured by the optical density (OD) of the growth solution. […] The cells were grown for up to 15 hours and the extent of growth was determined by measuring the optical density of the cultures at 600 nm. […]

Klebsiella pneumoniae = assay: Growth inhibition by IPTG-induced antisense RNA expression in Klebsiella pneumoniae (induced vs. uninduced serial dilution plating); type: cell-based
Method: (§1) To study the effects of transcriptional induction in liquid medium, growth curves were carried out by back diluting cultures 1:200 into fresh media with or without 1 mM IPTG and measuring the OD450 every 30 minutes (min). To study the effects of transcriptional induction on solid medium, 10^2, 10^3, 10^4, 10^5, 10^6, 10^7 and 10^8 fold dilutions of overnight cultures were prepared. Aliquots of from 0.5 to 3 μl of these dilutions were spotted on selective agar plates with or without 1 mM IPTG. After overnight incubation, the plates were compared to assess the sensitivity of the clones to IPTG.
(§2) Molecule No. EcXA059, encoding a portion of the ypjA gene of Escherichia coli, was either transformed directly into Enterobacter cloacae, Salmonella typhimurium and/or Klebsiella pneumoniae or subdloned into an expression vector functional in these species and the subclones transformed into these organisms. Suitable expression vectors are well known in the art. These expression vectors were introduced into Enterobacter cloacae, Salmonella typhimurium and/or Klebsiella pneumoniae cells that were then assayed for growth inhibition according to the method of Example 1. After growth in liquid culture, cells were plated at various serial dilutions and a score determined by calculating the log difference in growth for INDUCED vs. UNINDUCED antisense RNA expression as determined by the maximum 10 fold dilution at which a colony was observed. If there was no effect of antisense RNA expression in one organism, the clone is given a score of zero “0” in that organism. In contrast, a score of “8” means that 10^8 times more cells were required to observe a colony formed on the induced state than in the non-induced state under the conditions used and in that organism.
(§3) Expression vectors which inhibited growth of E. coli upon induction of antisense RNA expression with IPTG were transformed directly into Enterobacter cloacae, Klebsiella pneumonia or Salmonella typhimurium. The transformed cells were then assayed for growth inhibition according to the method of Example 1. After growth in liquid culture, cells were plated at various serial dilutions and a score determined by calculating the log difference in growth for INDUCED vs. UNINDUCED antisense RNA expression as determined by the maximum 10 fold dilution at which a colony was observed. If there was no effect of antisense RNA expression in a microorganism, the clone is minus in Table V below. In contrast, a positive in Table V below means that at least 10 fold more cells were required to observe a colony on the induced plate than on the non-induced plate under the conditions used and in that microorganism.

Salmonella typhimurium = assay: Growth inhibition by IPTG-induced antisense RNA expression in Salmonella typhimurium (induced vs. uninduced serial dilution plating); type: cell-based
Method: as §1, §2, §3

E. coli = assay: Inhibition of E. coli proliferation after IPTG induction of antisense clones (liquid growth curves, dilution spotting on plates); type: cell-based, Escherichia coli; conditions: 1 mM IPTG
Method: as §1, §2

Enterobacter cloacae = assay: Growth inhibition by IPTG-induced antisense RNA expression in Enterobacter cloacae (induced vs. uninduced serial dilution plating); type: cell-based
Method: as §1, §2, §3

`CC1COc2c(N3CCN(C)CC3)c(F)cc3c(=O)c(C(=O)O)cn1c23` (centres unmarked) [Ofloxacin] was tested, and the IC50 [1] was 0.0458 µg/mL (≈ 0.127 µM) and the “sensitivity to antibiotics which do not inhibit protein synthesis” value ([2]; clone expressing antisense to rplL and rplJ) was “does not show increased sensitivity”.

In the case of `CN(C)[C@@H]1C(O)=C(C(N)=O)C(=O)[C@@]2(O)C(O)=C3C(=O)c4c(O)cccc4[C@@](C)(O)[C@H]3C[C@@H]12` [Tetracycline], the “sensitivity to tetracycline (tetracycline IC50 with IPTG vs. without IPTG)” value ([2]; cells expressing antisense to genes not involved in protein synthesis (atpB/E, visC, elaD, yohH)) is reported as “did not show the same increased sensitivity” and the “sensitivity to tetracycline (tetracycline IC50 with IPTG vs. without IPTG)” value ([2]; cells with reduced levels of L7/L12 (rplL, rplJ) or L23 (rplW), IPTG giving 50% growth inhibition) is reported as “increased sensitivity”.

B1: EcXA083: antisense clone insert, E. coli gene hrpB (nucleic acid, listed as Escherichia coli)
DNA: CGGCTTAGCGCGTCGTTGGCATCGAGCATCGCTCCCATGCCGTTTGCCAGTTGATAGCGTCCATCTTGCC
In the case of B1, the “Sensitivity of K. pneumoniae to antisense nucleic acid (growth inhibition, induced vs. uninduced)” value (Klebsiella pneumoniae) is reported as “−”, the “Sensitivity of S. typhimurium to antisense nucleic acid (growth inhibition, induced vs. uninduced)” value (Salmonella typhimurium) is reported as “−” and the “effect of antisense expression on E. coli growth after IPTG induction” value (E. coli) is reported as “reduction in cell growth”. The “Sensitivity of E. cloacae to antisense nucleic acid (growth inhibition, induced vs. uninduced)” value (Enterobacter cloacae) was “−”.

From patent publication US20030181408A1, “Genes essential for microbial proliferation and antisense thereto” (priority 1999, published 2003)
